Data: patent publication US11246873B2, “Directed differentiation of oligodendrocyte precursor cells to a myelinating cell fate” (The Scripps Research Institute, priority 2011, dated 2022)
“Also recorded” adds a separate entry of the source.

Legend:
[1] = tested on: rat optic nerve derived OPCs; test: High content imaging assay of OPC differentiation (MBP immunostaining, OPERA); type: cell-based; details: OPCs in differentiation medium (2 ng/ml PDGF), 6 days
Experimental: FIG. 1A-C. […] The calculated EC50 values were determined using appropriate Graphpad Prism 5.0 curve fitting software. […] OPCs were plated in 384 well plates at 1000 cells per well in OPC media containing basal PDGF-αα (2 ng/mL) and treated with serial dilutions of compounds. Following six days of compound treatment, cells were fixed and subjected to immunofluorescence analysis using anti-myelin basic protein (MBP) antibody. Image acquisition and quantification of MBP staining was performed using the OPERA imaging system.
FIG. 11A-B. Screen to identify inducers of OPC differentiation. (A) OPCs were maintained as proliferating A2B5-positive cells under basal growth conditions (Neurobasal medium, B27 supplement without Vitamin A, non-essential amino acids, L-Glutamine, 30 ng/ml PDGF). OPCs were plated in basal differentiation media (Neurobasal medium, B27 supplement without Vitamin A, non-essential amino acids, L-Glutamine, 2 ng/ml PDGF), treated with DMSO (<0.1%) or thyroid hormone (1 uM), fixed after 6 days in culture, and stained using antibodies for CNP, O4, or MBP. […] (B) Screen strategy using A2B5 positive OPCs cultured under basal differentiation conditions and treated with compounds for 6 days to identify small molecules that induce the differentiation of OPCs to mature, MBP expressing oligodendrocytes.
FIG. 12A-B. Primary hit confirmation. (A) Dose response assay used to confirm primary screening hits and determine potency (EC50). (EC50) is defined as the concentration that results in a half maximal increase in the percentage of total cells that express MBP as detected by immunostaining. […] Cells were fixed and immunostained using antibodies for MBP. Error bars represent standard deviations from 3 replicate experiments. […]
FIG. 21. […] OPCs were plated in differentiation medium (2 ng/ml PDGF) and treated with various concentrations of compounds for 6 days. Cells were fixed and immunostained for MBP.
A large-scale small molecule screen was conducted to identify small molecules that promote the differentiation of oligodendrocyte precursor cells (OPCs) to a mature myelinating fate. High content imaging was used to detect in-well differentiation of rat optic nerve derived OPCs. Rat optic nerve derived OPCs were expanded en masse in OPC media containing 30 ng/mL PDGFαα. To screen for small molecule inducers of OPC differentiation, OPCs (cultured for fewer than 15 passages) were plated in poly-D-lysine coated 384 well culture plates in OPC Media containing 2 ng/mL PDGFαα and immediately treated with compounds at a final concentration of 6 μM (0.6% DMSO). Compound treated cells were incubated at 37° C., 5% CO2 for 6 days. At the end of 6 days, cells were fixed in 4% paraformaldehyde and subjected to immunofluorescence analysis. Anti-Myelin Basic Protein monoclonal antibody (a.a. 129-138, clone 1 monoclonal antibody, Millipore) (1:1000 dilution) in blocking buffere solution (3% BSA, 0.3% Triton X-100 in PBS) was added to fixed and washed cells and incubated at 4° C. overnight.

[2] = tested on: OPCs; test: Immunofluorescence analysis of mature oligodendrocyte markers (MBP, MOG, CNP, GalC, O1, O4); type: cell-based, rat; details: OPCs treated 6 days
Source text: FIG. 3. Immunofluorescence analysis of compound treated OPCs using mature oligodendrocyte specific markers. Immunofluorescence staining using specific antibodies for MBP, MOG, and 2′,3′-cyclic nucleotide 3′ phosphodiesterase (CNP). Nuclei were identified using DAPI.
FIG. 4. Immunofluorescence analysis of compound treated OPCs using mature oligodendrocyte specific markers. Immunofluorescence staining using specific antibodies for galactocereberoside (GalC), oligodendrocyte marker O1 (O1) and oligodendrocyte marker O4 (O4). Nuclei were identified using DAPI.
FIG. 14. Compound treatment induces the differentiation of OPCs to mature oligodendrocytes. […] Cells were fixed and immunostained for MBP, MOG, CNP, GalC, O1, or O4.
Immunofluorescence was also used to confirm that the hits were able to induce oligodendrocyte maturation.

[3] = tested on: OPCs; test: qRT-PCR of MBP and MOG expression in compound treated OPCs; type: cell-based, rat; details: EC90 concentrations, 6 days
Source text: FIG. 2A-C. […] (A) Western blot analysis of OPCs treated with compounds at EC90 concentrations for 6 days. Total protein was isolated from cell pellets and probed for myelin basic protein (MBP) and myelin oligodendrocyte glycoprotein (MOG) using specific antibodies. (B-C) Quantitative RT-PCR (qRT-PCR) analysis of OPCs treated with compounds at EC90 concentrations for 6 days. Total RNA was isolated from cell pellets and reverse transcribed. MBP and MOG expression was quantified using specific probes and Taqman-based qRT-PCR. Expression was normalized to the internal controls β-actin and GAPDH. Fold change in gene expression over DMSO treated control cells is plotted for MBP (B) and MOG (C).

[4] = tested on: OPCs; test: Western blot of MBP and MOG in compound treated OPCs; type: cell-based, rat; details: OPCs treated 6 days
Source text: FIG. 2A-C. Neurotransmitter receptor modulating agents induce the differentiation of OPCs to a myelinating oligodendrocyte cell fate. (A) Western blot analysis of OPCs treated with compounds at EC90 concentrations for 6 days. Total protein was isolated from cell pellets and probed for myelin basic protein (MBP) and myelin oligodendrocyte glycoprotein (MOG) using specific antibodies. (B-C) Quantitative RT-PCR (qRT-PCR) analysis of OPCs treated with compounds at EC90 concentrations for 6 days. Total RNA was isolated from cell pellets and reverse transcribed. MBP and MOG expression was quantified using specific probes and Taqman-based qRT-PCR. Expression was normalized to the internal controls β-actin and GAPDH. Fold change in gene expression over DMSO treated control cells is plotted for MBP (B) and MOG (C).
FIG. 13. […] After 6 days in culture, cells were analyzed for MBP and MOG expression by Western blot.

[5] = tested on: muscarinic receptor; test: Carbachol co-treatment in compound induced OPC differentiation (MBP staining); type: cell-based, rat; details: compounds at EC90 (benztropine 2.3 uM), serial dilutions of carbachol, 6 days
Experimental: Following 6 days of treatment, cells were fixed and stained for MBP. Plates were imaged using the OPERA high content screening system and MBP staining was quantified as described. […] OPCs were plated in 384-well plates at 5000 cells per well in media containing basal PDGF-αα. Cells were equilibrated with Ca^2+ sensitive Fluo-3AM® dye in HBSS for 30 min. […] Ca^2+ influx was immediately measured using the FLIPR TETRA® system.
OPCs express mAChRs, predominantly subtypes M1, M3, and M5 (F. Ragheb et al., J Neurochem, 77, 1396 (2001)). […] Activation of M1 and M3 mAChRs is coupled to downstream signal transduction events through phospholipase C, which results in increased intracellular calcium concentrations (F. Ragheb et al., J Neurochem, 77, 1396 (2001)) (FIG. 23C). M2 and M4 mAChR activation inhibits adenylatecyclase, leading to decreased intracellular cAMP levels (C. C. Felder, FASEB J, 9, 619 (1995); M. Lopez-Ilasaca et al., Science, 275, 394 (1997)). […] Acetylcholine is a known regulator of OPC proliferation and, as such, muscarinic receptor subtypes represent a reasonable class of therapeutic targets for the modulation of OPC proliferation and differentiation (F. De Angelis et al., Dev Neurobiol, (2011)).

[6] = tested on: PLP induced EAE mice
Experimental: (A-E) SJL mice were immunized with proteolipid peptide (PLP) and pertussis toxin and monitored daily with scoring on the standard clinical EAE scale (0-5). Compounds were administered daily for the duration of the study in saline at 10 mg/kg via intra-peritoneal injection (0.1 ml), starting on the day of the appearance of clinical EAE symptoms (day 10). […] Mean clinical EAE score and standard error of mean (SEM) are shown for each study group.
FIG. 25. […] EAE was induced in mice using PLP and pertussis toxin. […] Prophylactic dosing is defined as administration of compound commenced on the day of PLP injection. Error bars indicate standard deviation of the mean within each group of 8 mice.
(A-F) EAE was induced in mice using PLP and pertussis toxin. […] Error bars indicate standard deviation of the mean within each group of 8 mice.
(A-F) EAE was induced in mice by injecting PLP in complete Freund's adjuvant (CFA) and pertussis toxin, and the animals were scored daily for clinical severity of disease on a scale of 0-5. […] Error bars indicate standard deviation of the mean within each group of 8-10 mice.
10 week old SJL mice were immunized with PLP emulsion and pertusis toxin to induce EAE. […] Compounds were administered daily via intraperitoneal injection of 100 ul in sterile saline at 10 mg/kg alone or in combination with mycophenolate motefil in sterile saline at pH 5 at 20 mg/kg. Compound administration was initiated at disease onset (day 10) while mycophenolate motefil administration was initiated on Day 14. The mice were scored daily on a standard EAE scale of 0-5.
This model is most commonly used to evaluate the potential efficacy of immunomodulatory agents, but can also be used to determine the effectiveness of promyelinating agents that function by enhancing OPC differentiation (M. Fernandez et al., Proc Natl Acad Sci U.S.A, 101, 16363 (2004); X. Lee et al., J Neurosci, 27, 220 (2007); reviewed in R. J. Franklin, C. Ffrench-Constant, Nat Rev Neurosci, 9, 839 (2008)). […] We next evaluated efficacy when the drug is dosed therapeutically, by starting daily injections at the first sign of disease onset.
For the treatment of MS, an OPC differentiation inducing drug would most likely be introduced clinically as part of a combination therapy with an immunosuppressive drug. […] The former reduces T-cell proliferation and alters cytokine expression (A. Noronha, A. Toscas, M. A. Jensen, J Neuroimmunol, 46, 145 (1993); A. Noronha, A. Toscas, M. A. Jensen, Ann Neurol, 27, 207 (1990)), while the latter is an S1P agonist that regulates T-cell trafficking (V. Brinkmann et al., J Biol Chem, 277, 21453 (2002); V. Brinkmann et al., Nat Rev Drug Discov, 9, 883 (2010)).

For `N[C@@H](Cc1cc(I)c(Oc2ccc(O)c(I)c2)c(I)c1)C(=O)O` [thyroid hormone, triiodothryonine], the “induction of OPC differentiation (MBP staining)” value (from here on “induction of OPC differentiation”) [1] was “induces the differentiation of OPCs into mature oligodendrocytes that express MBP”, the “induction of OPC differentiation” value ([1]; listed as T3) was “results in the differentiation of OPCs to MBP positive oligodendrocytes” and the “markers of mature myelinating oligodendrocytes (MBP, MOG, CNP, GalC, O1, O4) by immunofluorescence” value [2] was “expression of mature oligodendrocyte markers”.
For `CN1[C@@H]2CC[C@H]1C[C@@H](OC(=O)C(CO)c1ccccc1)C2` (stereo partly shown) [atropine], the “induction of OPC differentiation” value [1] was “induce OPC differentiation; also recorded: induced OPC differentiation in a dose dependent manner; also recorded: induced differentiation of OPCs in a dose dependent manner”.
In the case of `CN1CCC[C@@H]1CCO[C@](C)(c1ccccc1)c1ccc(Cl)cc1` [clemastine], the “induction of OPC differentiation” value [1] is reported as “promote OPC differentiation”, the “induction of MBP expression (qRT-PCR) over DMSO” value [3] is reported as “two-fold” and the “induction of MOG expression (qRT-PCR) over DMSO” value [3] is reported as “two-fold”. For the same compound, the “MBP and MOG expression (Western blot)” value [4] was “positive”, the “markers of mature myelinating oligodendrocytes (MBP, MOG, CNP, GalC, O1, O4) by immunofluorescence” value [2] was “confirmed the presence of multiple markers of mature myelinating oligodendrocytes” and the “effect of carbachol on compound induced OPC differentiation” value [5] was “inhibited; also recorded: dose dependent inhibition”.
For `CC(C)[N+]1(C)[C@@H]2CC[C@H]1C[C@@H](OC(=O)C(CO)c1ccccc1)C2` (stereo partly shown) [ipratropium], the “induction of OPC differentiation” value [1] was “induce OPC differentiation; also recorded: induced OPC differentiation in a dose dependent manner; also recorded: induced differentiation of OPCs in a dose dependent manner”.
With `CCCCCCCCc1ccc(CCC(N)(CO)CO)cc1` [FTY720, fingolimod] the “maximal observed tolerated dose” value ([6]; EAE mice) was roughly 1 mg/kg.
With `CN1[C@@H]2C[C@@H](OC(=O)[C@H](CO)c3ccccc3)C[C@H]1[C@@H]1O[C@@H]12` [scopolamine] the “induction of OPC differentiation” value [1] was “induced OPC differentiation in a dose dependent manner; also recorded: induced differentiation of OPCs in a dose dependent manner”.
`CC(C)(C)NCC(O)c1ccc(O)c(CO)c1` (stereo not shown) [salbutamol] was tested, and the “clinical severity versus vehicle, dosing after disease onset (therapeutic mode)” value ([6]; compounds 10 mg/kg i.p. daily from first EAE symptoms, mycophenolate 20 mg/kg from day 14) was “significantly decreased clinical severity in the relapse phase”.
With `CCCOC(C(=O)OC1CCN(C)CC1)(c1ccccc1)c1ccccc1` [propiverine] the “induction of OPC differentiation” value [1] was “induced OPC differentiation in a dose dependent manner; also recorded: induced differentiation of OPCs in a dose dependent manner”.
In the case of `CCN(CC)CC#CCOC(=O)C(O)(c1ccccc1)C1CCCCC1` (stereo not shown) [oxybutynin], the “induction of OPC differentiation” value [1] is reported as “induced OPC differentiation in a dose dependent manner; also recorded: induced differentiation of OPCs in a dose dependent manner”.
